Where a SMILES comes first, the peptide text is derived from it. The star is where a group is joined. Cbz = O=C(OCc1ccccc1)*
Experiments:
MPK38-Trx complex = assay: Endogenous MPK38-Trx complex formation in adipocytes; assay type: cell-based, mouse; details: both females and males
Method: (§1) In order to further determine whether or not testosterone increases the stability of MPK38, the effect of DHT on the formation of a complex of MPK38 with either ZPR9 or Trx was analyzed. The reason for this is that ZPR9 or Trx acts as a stabilizer or destabilizer of MPK38.

MPK38 = assay: Immunoblot analysis of MPK38 stability and ubiquitination in adipocytes treated with DHT or E2; assay type: cell-based, mouse; details: for stability of MPK38: adipocytes of 4.5-month-old male and female mice, 10 nM, 24 hours, then cycloheximide 20 μg/ml; for endogenous ubiquitination of MPK38: adipocytes, regardless of gender
Method: In order to determine whether or not sex hormones such as testosterone and estrogen affect the kinase activity and expression of MPK38, immunoblot analysis was performed on adipocytes derived from 4.5-month-old normal male and female mice treated with DHT and E2.

MPK38-ZPR9 complex = assay: Endogenous MPK38-ZPR9 complex formation in adipocytes; assay type: cell-based, mouse; details: both females and males
Method: as §1

mouse hepatocytes = assay: Effects of DHT and E2 on lipid metabolism and MPK38 kinase activity in hepatocytes; assay type: cell-based; details: 10 nM each, compared with adipocytes
MPK38-Mdm2 complex = assay: Endogenous MPK38-Mdm2 complex formation (immunoprecipitation/immunoblot) in adipocytes; assay type: cell-based, mouse; details: vs control group not treated with DHT or E2
Method: Furthermore, since MPK38 physically interacts with Mdm2, whether or not DHT and E2 are involved in the decomposition of MPK38 mediated by Mdm2 was determined.

ASK1/TGF-β/p53 signaling = assay: MPK38-dependent ASK1/TGF-β/p53 signaling in adipocytes treated with DHT or E2; assay type: cell-based, mouse; details: vs control group not treated with DHT or E2; H2O2, TGF-β1 or 5FU stimulation
[1] = tested on: castrated MPK38−/− male mice; assay: Testosterone replacement in castrated male mice; assay type: in vivo, mouse
Method: A mixture of ketamine (34 mg/kg), xylazine (6.8 mg/kg) and acepromazine (1.1 mg/kg) was dissolved in saline, and the mice were anesthetized using this solution, and then surgery was performed. The surgical site was shaved and washed, and then sterilized with 70% alcohol. For castration, after abdomen midline incision, castration was performed such that the testes and attached fat pads were left intact. The testes were removed through an incision, but the testicular ducts and blood vessels supplying the testes were ligated with sterile silk suture and the testicular fat pads were put back, followed by closure with sterile silk suture. For sham castration, the testes with attached fat pads were exposed and put back without organ extirpation after abdominal incision, and the incision was closed with sterile silk suture. For ovariectomy, after midline abdominal incision, the uterus, oviducts, and ovaries with the fat pads were left intact. The ovaries were removed through an incision, but the oviduct and blood vessels supplying the ovaries were ligated with sterile silk suture and the ovarian fat pads were put back, followed by closure with sterile silk suture. […] After surgery, mice were monitored until they are fully recovered from anesthesia. […]

In the case of `C[C@]12CCC(=O)C[C@@H]1CC[C@@H]1[C@@H]2CC[C@]2(C)[C@@H](O)CC[C@@H]12` [DHT], the “formation of MPK38-Trx complex” value (MPK38-Trx complex) was “decreased”, the “stability of MPK38” value (MPK38) was “increased” and the “endogenous ubiquitination of MPK38” value (MPK38) was “decreased”. For the same compound, the “formation of endogenous MPK38-ZPR9 complex” value (MPK38-ZPR9 complex) was “increased”, the “effects on lipid metabolism and MPK38 kinase activity in liver cells” value (mouse hepatocytes) was “similar” and the “formation of endogenous MPK38-Mdm2 complex” value (MPK38-Mdm2 complex) was “decreased”. The ASK1/TGF-β/p53 signaling (ASK1/TGF-β/p53 signaling) was “increased”.

`C[C@]12CC[C@@H]3c4ccc(O)cc4CC[C@H]3[C@@H]1CC[C@@H]2O` [E2] was tested, and the “formation of MPK38-Trx complex” value (MPK38-Trx complex) was “results opposite those of treatment with DHT”, the “stability of MPK38” value (MPK38) was “decreased” and the “endogenous ubiquitination of MPK38” value (MPK38) was “increased”. The “formation of endogenous MPK38-ZPR9 complex” value (MPK38-ZPR9 complex) was “results opposite those of treatment with DHT”, the “effects on lipid metabolism and MPK38 kinase activity in liver cells” value (mouse hepatocytes) was “similar” and the “formation of endogenous MPK38-Mdm2 complex” value (MPK38-Mdm2 complex) was “increased”. For the same compound, the ASK1/TGF-β/p53 signaling (ASK1/TGF-β/p53 signaling) was “decreased”.

For `CC(C)C[C@@H](C=O)NC(=O)[C@H](CC(C)C)NC(=O)[C@H](CC(C)C)NC(=O)OCc1ccccc1` [MG132] (Cbz-Leu-Leu-Leu-aldehyde), the “stability of MPK38 on exposure to proteasome inhibitor” value (MPK38; 10 μM MG132, treated vs untreated group) was “increase”.

With `C[C@]12CC[C@H]3[C@@H](CCC4=CC(=O)CC[C@@]43C)[C@@H]1CC[C@@H]2O` [testosterone] the “effects of castration on metabolism after testosterone replacement” value ([1]; castrated male mice, T replacement (FIG. 14)) was “effects opposite to all of these results” and the “glucose or lipid metabolism” value ([1]; middle-aged (7 months old) MPK38−/− male mice, testosterone pellets 25 μg/day) was “did not affect”.

— US20240100131A1, “NOVEL USE OF MPK38/MELK AS THERAPEUTIC AGENT FOR OBESITY OR METABOLIC DISEASES SPECIFIC TO MIDDLE-AGED MEN” (priority 2021, published 2024)
